≈ marks a conversion by molar mass, not a printed value.
Assays:
[1] = system: Escherichia coli NIHJ; experiment: MIC, plate method, standard strains; type: cell-based; details: Table 3, standard strain; unit assumed
Outline: (§1)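 Minimum inhibitory concentrations are determined by agar plate dilution using Heart infusion agar (pH 7.4). Each plate receives an inoculum of 10^4 cells.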

[2] = system: Klebsiella pneumoniae; experiment: MIC, plate method, standard strains; type: cell-based; details: Table 3, standard strain; unit assumed
Outline: as §1

[3] = system: Proteus vulgaris 3027; experiment: MIC, plate method, standard strains; type: cell-based; details: Table 3, standard strain; unit assumed
Outline: as §1

[4] = system: Pseudomonas aeruginosa I.F.O.; experiment: MIC, plate method, standard strains; type: cell-based; details: Table 3, standard strain; unit assumed
Outline: as §1

[5] = system: Staphylococcus aureus 209p; experiment: MIC, plate method, standard strains; type: cell-based; details: Table 3, standard strain, Heart infusion agar pH 7.4; unit assumed
Outline: as §1

[6] = system: Staphylococcus aureus; experiment: MIC against clinical isolates; type: cell-based; details: Table 5-1, clinical isolate; unit assumed
[7] = system: Escherichia coli; experiment: MIC against clinical isolates; type: cell-based; details: Table 5-2, clinical isolate; unit assumed
[8] = system: Pseudomonas aeruginosa; experiment: MIC against clinical isolates; type: cell-based; details: unit assumed
[9] = system: Klebsiella pneumoniae; experiment: MIC against clinical isolates; type: cell-based; details: Table 5-4, clinical isolate; unit assumed
[10] = system: Shigella flexneri; experiment: MIC against clinical isolates; type: cell-based; details: Table 5-5, clinical isolate; unit assumed
Method: (§2) The minimum inhibitory concentration (MIC) was determined by the plate method disclosed in "Chemotherapy" (Japan), Vol. 16, (1968), pages 98-99. The culture medium used was a Heart infusion agar (pH 7.4). The number of the cells per plate used in the inoculum was 10^4 (10^6 cells/ml).
(§3) MIC was determined in the same manner as in the preceding paragraph (1).

[11] = system: Shigella sonnei; experiment: MIC against clinical isolates; type: cell-based; details: Table 5-5, clinical isolate; unit assumed
Method: as §2, §3

[12] = system: Salmonella typhi-murium; experiment: MIC against clinical isolates; type: cell-based; details: Table 5-5, clinical isolate; unit assumed
[13] = system: Proteus vulgaris; experiment: MIC against clinical isolates; type: cell-based; details: Table 5-6, clinical isolate; unit assumed
[14] = system: β-lactamase, Pseudomonas aeruginosa GN 238; experiment: Resistant activity against β-lactamase, iodometric assay; type: biochemical; details: β-lactamase from Pseudomonas aeruginosa GN 238; Potassium Penicillin G = 100
Method: (3) Resistant activity against β-lactamase, Pseudomonas aerugionsa GN 238:
The resistant activity of each compound against β-lactamase was measured in the manner described below.
β-Lactamase was prepared from Pseudomonas aeruginosa GN 238. This microorganism was cultured in 100 ml of a medium containing 2 g of yeast extract, 10 g of polypeptone, 2 g of glucose, 7 g of disodium hydrogen phosphate, 2 g of potassium dihydrogen phosphate, 1.2 g of ammonium sulfate and 0.4 g of magnesium sulfate, per liter, in a 500-ml Erlenmeyer flask for 6 hrs. at 37° C. with shaking. The resulting cells were collected by centrifugation (5,000 r.p.m.×10 min.), washed three times with 0.1 M phosphate buffer (pH 7.0). Subsequently, the cells were subjected to sonication (20 KHz, 20 min.) and then centrifuged at 15,000 r.p.m. for 60 min. By using the supernatant of enzyme fluid, the resistance of each compound against β-lactamase was determined by the iodometric assay method. Each numeral shown in Table 7 is a relative activity value calculated by assuming as 100 the activity of the control Potassium Penicillin G.

[15] = system: Proteus mirabilis; experiment: MIC against clinical isolates; type: cell-based; details: Table 5-6, clinical isolate; unit assumed
[16] = system: Proteus morganii; experiment: MIC against clinical isolates; type: cell-based; details: Table 5-6, clinical isolate; unit assumed

CN1CCN(C(=O)NC(C(=O)NC2C(=O)N3C2SC(C)(C)C3C(=O)O)c2ccccc2)C(=O)C1=O (single isomer, unassigned) [Compound 37]
MIC Esche--richin coil NIHJ [1]: < 1.57 µg/mL
MIC Klebsiella pneumoniae [2]: 6.25 µg/mL (≈ 12.4 µM)
MIC Proteus vulgaris 3027 [3]: < 1.57 µg/mL
MIC Pseudomonas aeruginosa I.F.C [4]: 6.25 µg/mL (≈ 12.4 µM)
MIC Staphylococcus aureus 209p [5]: < 1.57 µg/mL
MIC Staphylococcus aureus F-1 [6]: 12.5 µg/mL (≈ 24.8 µM)
MIC Staphylococcus aureus F-3 [6]: 3.13 µg/mL (≈ 6.22 µM)
MIC Staphylococcus aureus F-4 [6]: 6.25 µg/mL (≈ 12.4 µM)
MIC Staphylococcus aureus F-5 [6]: > 200 µg/mL
MIC Staphylococcus aureus MS 8588 [6]: 3.13 µg/mL (≈ 6.22 µM)
MIC Staphylococcus aureus MS 8596 [6]: 3.13 µg/mL (≈ 6.22 µM)
MIC Staphylococcus aureus MS 8684 [6]: 3.13 µg/mL (≈ 6.22 µM)
MIC Staphylococcus aureus MS 8713 [6]: 12.5 µg/mL (≈ 24.8 µM)
MIC Escherichia coli GN 3435 [7]: 3.13 µg/mL (≈ 6.22 µM)
MIC Escherichia coli GN 3452 [7]: 12.5 µg/mL (≈ 24.8 µM)
MIC Escherichia coli GN 3465 [7]: 200 µg/mL (≈ 397 µM)
MIC Escherichia coli GN 3481 [7]: 6.25 µg/mL (≈ 12.4 µM)
MIC Escherichia coli GN 3611 [7]: > 200 µg/mL
MIC Escherichia coli K-1 [7]: 12.5 µg/mL (≈ 24.8 µM)
MIC Escherichia coli K-2 [7]: 6.25 µg/mL (≈ 12.4 µM)
MIC Escherichia coli K-3 [7]: > 200 µg/mL
MIC Escherichia coli K-4 [7]: 3.13 µg/mL (≈ 6.22 µM)
MIC Pseudomonas aeruginosa GN ([8]; Table 5-3, clinical isolate, strain number not given): 50 µg/mL (≈ 99.3 µM)
MIC Pseudomonas aeruginosa GN 82 ([8]; Table 5-3, clinical isolate): 6.25 µg/mL (≈ 12.4 µM)
MIC Pseudomonas aeruginosa GN 163 ([8]; Table 5-3, clinical isolate): 12.5 µg/mL (≈ 24.8 µM)
MIC Pseudomonas aeruginosa GN 221 ([8]; Table 5-3, clinical isolate): 6.25 µg/mL (≈ 12.4 µM)
MIC Pseudomonas aeruginosa GN 376 ([8]; Table 5-3, clinical isolate): 12.5 µg/mL (≈ 24.8 µM)
MIC Pseudomonas aeruginosa GN 1035 ([8]; Table 5-3, clinical isolate): 50 µg/mL (≈ 99.3 µM)
MIC Pseudomonas aeruginosa GN 1091 ([8]; Table 5-3, clinical isolate): 12.5 µg/mL (≈ 24.8 µM)
MIC Pseudomonas neruginosa S-1 ([8]; Table 5-4, clinical isolate): 200 µg/mL (≈ 397 µM)
MIC Pseudomonas neruginosa S-3 ([8]; Table 5-4, clinical isolate): 50 µg/mL (≈ 99.3 µM)
MIC Pseudomonas neruginosa S-4 ([8]; Table 5-4, clinical isolate): 100 µg/mL (≈ 199 µM)
MIC Klebsiella pneumoniae GN 917 [9]: 12.5 µg/mL (≈ 24.8 µM)
MIC Klebsiella pneumoniae GN 4081 [9]: 200 µg/mL (≈ 397 µM)
MIC Klebsiella pneumoniae GN 4117 [9]: 100 µg/mL (≈ 199 µM)
MIC Shigella flexneri JS 11215 [10]: > 200 µg/mL
MIC Shigella flexneri JS 11839 [10]: 6.25 µg/mL (≈ 12.4 µM)
MIC Shigella sonnei JS 11232 [11]: 100 µg/mL (≈ 199 µM)
MIC Shigella sonnei JS 11755 [11]: 6.25 µg/mL (≈ 12.4 µM)
MIC Salmonella typhi-murium SL 2136 [12]: > 200 µg/mL
MIC Proteus vulgaris [13]: < 0.4 µg/mL
Relative activity (%), resistant activity against β-lactamase [14]: 15%

CCCN1CCN(C(=O)NC(C(=O)NC2C(=O)N3C2SC(C)(C)C3C(=O)O)c2ccccc2)C(=O)C1=O (single isomer, unassigned) [Compound 38]
MIC Esche--richin coil NIHJ [1]: < 0.1 µg/mL
MIC Klebsiella pneumoniae [2]: 3.13 µg/mL (≈ 5.89 µM)
MIC Proteus vulgaris 3027 [3]: 0.4 µg/mL (≈ 0.752 µM)
MIC Staphylococcus aureus 209p [5]: 0.4 µg/mL (≈ 0.752 µM)
MIC Staphylococcus aureus F-2 [6]: 1.57 µg/mL (≈ 2.95 µM)
MIC Staphylococcus aureus F-5 [6]: > 200 µg/mL
MIC Staphylococcus aureus MS 8588 [6]: 3.13 µg/mL (≈ 5.89 µM)
MIC Staphylococcus aureus MS 8596 [6]: 3.13 µg/mL (≈ 5.89 µM)
MIC Staphylococcus aureus MS 8684 [6]: 3.13 µg/mL (≈ 5.89 µM)
MIC Escherichia coli GN 3452 [7]: 3.13 µg/mL (≈ 5.89 µM)
MIC Escherichia coli GN 3465 [7]: 50 µg/mL (≈ 94.1 µM)
MIC Escherichia coli GN 3481 [7]: 3.13 µg/mL (≈ 5.89 µM)
MIC Escherichia coli GN 3611 [7]: > 200 µg/mL
MIC Escherichia coli K-1 [7]: 3.13 µg/mL (≈ 5.89 µM)
MIC Escherichia coli K-2 [7]: 3.13 µg/mL (≈ 5.89 µM)
MIC Escherichia coli K-3 [7]: > 200 µg/mL
MIC Pseudomonas aeruginosa GN 82 ([8]; Table 5-3, clinical isolate): 3.13 µg/mL (≈ 5.89 µM)
MIC Pseudomonas aeruginosa GN 163 ([8]; Table 5-3, clinical isolate): 3.13 µg/mL (≈ 5.89 µM)
MIC Pseudomonas aeruginosa GN 376 ([8]; Table 5-3, clinical isolate): 3.13 µg/mL (≈ 5.89 µM)
MIC Pseudomonas aeruginosa GN 1091 ([8]; Table 5-3, clinical isolate): 3.13 µg/mL (≈ 5.89 µM)
MIC Klebsiella pneumoniae GN 917 [9]: 3.13 µg/mL (≈ 5.89 µM)
MIC Klebsiella pneumoniae GN 4081 [9]: 50 µg/mL (≈ 94.1 µM)
MIC Klebsiella pneumoniae GN 4117 [9]: 50 µg/mL (≈ 94.1 µM)
MIC Shigella flexneri JS 11215 [10]: 25 µg/mL (≈ 47 µM)
MIC Shigella flexneri JS 11839 [10]: 1.57 µg/mL (≈ 2.95 µM)
MIC Shigella sonnei JS 11232 [11]: 50 µg/mL (≈ 94.1 µM)
MIC Shigella sonnei JS 11755 [11]: 3.13 µg/mL (≈ 5.89 µM)
MIC Salmonella typhi-murium SL 2136 [12]: 200 µg/mL (≈ 376 µM)
MIC Proteus mirabilis [15]: < 0.4 µg/mL
MIC Proteus morganii [16]: < 0.4 µg/mL
MIC Proteus vulgaris [13]: < 0.4 µg/mL
Relative activity (%), resistant activity against β-lactamase [14]: 15%

Reference: patent publication US4327097A, “Novel penicillins” (Toyama Chemical Co., Ltd., priority 1974, dated 1982)
